Assay results from PubChem BioAssay AID328 (DTP/NCI, 2004).
Values joined by “and” are separate entries in the source; they are usually repeats but may differ in a detail not shown here. Equal values may be shown once. Inconclusive results and toxic doses are left out. Rule for the calls: active = survival T/C of 150% or more; inactive = T/C below 125% in these data.

Tested on: BDF1 mice, P388 leukemia ip, median survival T/C
Assay: NCI In Vivo Anticancer Drug Screen. Data for tumor model P388 Leukemia (intraperitoneal) in B6D2F1 (BDF1) mice
Settings: endpoint: median survival time, higher = longer survival
Summary of the method: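 Read-out is survival of treated animals expressed relative to the vehicle group, as a T/C ratio.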

[1] = dose: 100.0 mg/kg/injection, schedule: Q04DX003 (ip), vehicle: saline with Tween-80
[2] = dose: 200.0 mg/kg/injection, schedule: Q04DX003 (ip), vehicle: saline with Tween-80
[3] = dose: 400.0 mg/kg/injection, schedule: Q04DX003 (ip), vehicle: saline with Tween-80
[4] = dose: 100.0 mg/kg/injection, schedule: Q01DX001 (ip), vehicle: Klucel (hydroxypropylcellulose) (HPC)
[5] = dose: 200.0 mg/kg/injection, schedule: Q01DX001 (ip), vehicle: Klucel (hydroxypropylcellulose) (HPC)
[6] = dose: 400.0 mg/kg/injection, schedule: Q01DX001 (ip), vehicle: Klucel (hydroxypropylcellulose) (HPC)
[7] = dose: 100.0 mg/kg/injection, schedule: Q01DX009 (ip), vehicle: Klucel (hydroxypropylcellulose) (HPC)
[8] = dose: 50.0 mg/kg/injection, schedule: Q01DX009 (ip), vehicle: saline with Tween-80
[9] = dose: 100.0 mg/kg/injection, schedule: Q01DX009 (ip), vehicle: saline with Tween-80
[10] = dose: 200.0 mg/kg/injection, schedule: Q01DX009 (ip), vehicle: saline with Tween-80
[11] = dose: 400.0 mg/kg/injection, schedule: Q01DX009 (ip), vehicle: saline with Tween-80
[12] = dose: 25.0 mg/kg/injection, schedule: Q01DX009 (ip), vehicle: saline with Tween-80
[13] = dose: 6.25 mg/kg/injection, schedule: Q01DX009 (ip), vehicle: saline with Tween-80
[14] = dose: 12.5 mg/kg/injection, schedule: Q01DX009 (ip), vehicle: saline with Tween-80
[15] = dose: 100.0 mg/kg/injection, schedule: Q04DX003 (ip), vehicle: saline
[16] = dose: 200.0 mg/kg/injection, schedule: Q04DX003 (ip), vehicle: saline

Measured: T/C

O=C(c1ccccc1)c1cc[n+]([O-])cc1
inactive: dose: 75.0 mg/kg/injection, schedule: Q01DX001 (ip), vehicle: saline sonified 91 % of control | dose: 150.0 mg/kg/injection, schedule: Q01DX001 (ip), vehicle: saline sonified 91 % of control

C(=Nc1ccc(-c2ccccc2)cc1)c1ccccc1
inactive: [1] 100 % of control | [2] 100 % of control | [3] 100 % of control

C(=C/c1nc2ccccc2o1)/c1ccc2c(c1)OCO2
inactive: dose: 50.0 mg/kg/injection, schedule: Q01DX011 (ip), vehicle: Klucel (hydroxypropylcellulose) (HPC) 102 % of control | [4] 100 % of control | dose: 100.0 mg/kg/injection, schedule: Q01DX011 (ip), vehicle: Klucel (hydroxypropylcellulose) (HPC) 99 % of control | [5] 86 % of control | dose: 200.0 mg/kg/injection, schedule: Q01DX011 (ip), vehicle: Klucel (hydroxypropylcellulose) (HPC) 100 % of control | [6] 94 % of control

CN(C)c1ccc(C=O)cc1[N+](=O)[O-]
inactive: dose: 50.0 mg/kg/injection, schedule: Q04DX003 (ip), vehicle: Klucel (hydroxypropylcellulose) (HPC) 113 % of control | dose: 100.0 mg/kg/injection, schedule: Q04DX003 (ip), vehicle: Klucel (hydroxypropylcellulose) (HPC) 113 % of control | dose: 200.0 mg/kg/injection, schedule: Q04DX003 (ip), vehicle: Klucel (hydroxypropylcellulose) (HPC) 104 % of control

COc1ccc(CCC(C(=O)O)c2ccc(OC)c(OC)c2)cc1OC (stereo not drawn)
inactive: dose: 45.0 mg/kg/injection, schedule: Q01DX009 (ip), vehicle: Klucel (hydroxypropylcellulose) (HPC) 95 % of control | dose: 65.0 mg/kg/injection, schedule: Q01DX009 (ip), vehicle: Klucel (hydroxypropylcellulose) (HPC) 90 % of control | [7] 95 % of control | dose: 150.0 mg/kg/injection, schedule: Q01DX009 (ip), vehicle: Klucel (hydroxypropylcellulose) (HPC) 90 % of control

O=[N+]([O-])c1ccc(-c2nc(Cl)c3c(n2)CCCC3)o1
inactive: [8] 95 % of control | [9] 98 % of control | [10] 97 % of control

COC(=O)C(N)CN (stereo not drawn)
inactive: dose: 175.0 mg/kg/injection, schedule: Q01DX009 (ip), vehicle: saline with Tween-80 89 % of control

COC(=O)C(=NO)C(=O)OC
inactive: dose: 100.0 mg/kg/injection, schedule: Q01DX009 (ip), vehicle: saline 104 % of control | dose: 200.0 mg/kg/injection, schedule: Q01DX009 (ip), vehicle: saline 96 % of control | dose: 400.0 mg/kg/injection, schedule: Q01DX009 (ip), vehicle: saline 96 % of control

COc1ccc(N=C2C(=O)Nc3ccc(Br)cc32)cc1
inactive: [8] 100 % of control | [9] 105 % of control | [10] 104 % of control | [11] 104 % of control

Cc1cc(=O)cc(C)n1C
inactive: [9] 104 % of control | [10] 100 % of control | [11] 100 % of control

OCCN=Cc1ccccc1
inactive: [1] 100 % of control | [2] 100 % of control

CN(C)c1ccccc1.[C-]#[O+].[C-]#[O+].[C-]#[O+].[Cr]
inactive: [1] 91 % of control

CCOC(=O)C(CNc1ccccc1)C(=O)OCC
inactive: [12] 95 % of control | [8] 95 % of control | [9] 95 % of control and 100 % of control | [10] 100 % of control | [11] 108 % of control and 109 % of control

CN=C(NC)c1ccc(NC(=O)c2ccc(C(=O)Nc3ccc(C(=NC)NC)cc3)cc2)cc1
inactive: [13] 104 % of control | [14] 100 % of control | [12] 86 % of control | [15] 90 % of control | [16] 90 % of control

CC12CC[C]([Hg][I])(CC1)C2(C)C
inactive: dose: 3.13 mg/kg/injection, schedule: Q01DX009 (ip), vehicle: saline with Tween-80 121 % of control | [13] 121 % of control | [14] 114 % of control

CC1=C2C(=C(CBr)OS1(=O)=O)C(=O)c1ccccc12
inactive: [1] 104 % of control | [2] 104 % of control | [3] 104 % of control

O=C(O)C1CC2C=CC1C2 (stereo not drawn)
inactive: [14] 118 % of control | [12] 113 % of control | [8] 109 % of control | [9] 110 % of control and 100 % of control | [10] 90 % of control | [11] 86 % of control

O=C(S)c1ccccc1Br
inactive: dose: 50.0 mg/kg/injection, schedule: Q01DX005 (ip), vehicle: saline with Tween-80 99 % of control | dose: 100.0 mg/kg/injection, schedule: Q01DX005 (ip), vehicle: saline with Tween-80 92 % of control | dose: 200.0 mg/kg/injection, schedule: Q01DX005 (ip), vehicle: saline with Tween-80 100 % of control

CN1CCN(C)P1c1ccccc1
inactive: [8] 109 % of control | [9] 112 % of control | [10] 110 % of control

NC(=O)OCc1c(O)c2c(c(O)c1COC(N)=O)C(=O)C=CC2=O
inactive: dose: 12.5 mg/kg/injection, schedule: Q01DX009 (ip), vehicle: water 111 % of control | dose: 12.5 mg/kg/injection, schedule: Q04DX003 (ip), vehicle: water 100 % of control | dose: 25.0 mg/kg/injection, schedule: Q01DX009 (ip), vehicle: water 92 % of control | dose: 25.0 mg/kg/injection, schedule: Q04DX003 (ip), vehicle: water 104 % of control | dose: 50.0 mg/kg/injection, schedule: Q01DX009 (ip), vehicle: water 104 % of control | dose: 50.0 mg/kg/injection, schedule: Q04DX003 (ip), vehicle: water 101 % of control | dose: 100.0 mg/kg/injection, schedule: Q04DX003 (ip), vehicle: water 100 % of control | dose: 200.0 mg/kg/injection, schedule: Q04DX003 (ip), vehicle: water 102 % of control and 113 % of control | dose: 300.0 mg/kg/injection, schedule: Q04DX003 (ip), vehicle: water 95 % of control | dose: 400.0 mg/kg/injection, schedule: Q04DX003 (ip), vehicle: water 108 % of control

NC(=S)c1c(N)n(C2OC(CO)C(O)C2O)c2ncnc(N)c12 (stereo not drawn)
inactive: dose: 12.5 mg/kg/injection, schedule: Q04DX003 (ip), vehicle: saline 114 % of control | dose: 25.0 mg/kg/injection, schedule: Q04DX003 (ip), vehicle: saline 112 % of control

O=C(NN(c1ccc([N+](=O)[O-])cc1)c1ccc([N+](=O)[O-])cc1)c1ccccc1
inactive: dose: 50.0 mg/kg/injection, schedule: Q01DX009 (ip), vehicle: Klucel (hydroxypropylcellulose) (HPC) 100 % of control | [7] 105 % of control | dose: 200.0 mg/kg/injection, schedule: Q01DX009 (ip), vehicle: Klucel (hydroxypropylcellulose) (HPC) 105 % of control

OC1CC[N-]CC1.OC1CC[N-]CC1.[Cl][Pt+2]([Cl])([Cl])[Cl]
inactive: dose: 25.0 mg/kg/injection, schedule: Q04DX003 (ip), vehicle: saline with Tween-80 109 % of control | dose: 50.0 mg/kg/injection, schedule: Q04DX003 (ip), vehicle: saline with Tween-80 102 % of control

CC(=S)Nc1ccc2ccccc2c1
inactive: [9] 107 % of control | [1] 118 % of control | [10] 107 % of control | [2] 109 % of control | [11] 119 % of control | [3] 122 % of control

O=C1CSC(=O)CS1
inactive: [8] 99 % of control | [9] 93 % of control

COc1ccc2[nH]c3c(c2c1)CSc1ccccc1-3
inactive: [4] 91 % of control | [5] 108 % of control | [6] 108 % of control

O=C(O)c1ccc(C(=O)O)c([N+](=O)[O-])c1
inactive: dose: 50.0 mg/kg/injection, schedule: Q04DX003 (ip), vehicle: saline 100 % of control | [15] 100 % of control | [16] 100 % of control

CN1C=NNc2ccc(Cl)cc2C1=O
inactive: [1] 103 % of control | [2] 114 % of control | [3] 109 % of control

CCCCCCCCOc1cc(OCCCCCCCC)c2c(ccc3ccccc32)c1
inactive: [1] 97 % of control | [2] 88 % of control | [3] 94 % of control

CC1Cc2ccccc2SC1(C)C (stereo not drawn)
inactive: dose: 12.5 mg/kg/injection, schedule: Q01DX009 (ip), vehicle: saline 101 % of control | dose: 25.0 mg/kg/injection, schedule: Q01DX009 (ip), vehicle: saline 114 % of control | dose: 50.0 mg/kg/injection, schedule: Q01DX009 (ip), vehicle: saline 115 % of control
